Experimental data taken from US9334289B2, “Cephem compound having catechol or pseudo-catechol structure” (SHIONOGI & CO., LTD., priority 2011, dated 2016).

Experiments:
Test in all cases: MIC, CLSI broth microdilution, Test Example 1
Assay type in all cases: cell-based
P. aeruginosa SR24 = conditions: Pseudomonas aeruginosa, SR24; Ceftazidime resistance strain; cation-adjusted Mueller Hinton broth containing human apo-transferrin; 5×10^5 cfu/mL; read-out: Minimum Inhibitory Concentration (MIC) P. aeruginosa SR24
A. baumannii SR27323 = conditions: Acinetobacter baumannii, SR27323; OXA-23, OXA-58 carbapenemase producing strain; cation-adjusted Mueller Hinton broth containing human apo-transferrin; 5×10^5 cfu/mL; read-out: Minimum Inhibitory Concentration (MIC) A. baumannii SR27323
Method: (§1) Measurement of Minimum Inhibitory Concentration (MIC: μg/mL) was conducted according to CLSI (Clinical and Laboratory Standards Institute) method, and the amount of bacteria for inoculation was 5×10^5 cfu/mL, and cation-adjusted Mueller Hinton broth containing human apo-transferrin was used as a test medium, and the experiment was conducted using broth microdilution method. The bacteria used are listed below.

E. coli ATCCBAA-199 = conditions: Escherichia coli, ATCCBAA199; SHV-3 ESBL producing strain; cation-adjusted Mueller Hinton broth containing human apo-transferrin; 5×10^5 cfu/mL; read-out: Minimum Inhibitory Concentration (MIC) E. coli ATCC BAA-199
Method: as §1

E. coli ATCCBAA-200 = conditions: Escherichia coli, ATCCBAA200; SHV-4 ESBL producing strain; cation-adjusted Mueller Hinton broth containing human apo-transferrin; 5×10^5 cfu/mL; read-out: Minimum Inhibitory Concentration (MIC) E. coli ATCC BAA-200
Method: as §1

[1] = test system: K. pneumoniae ATCCBAA-1705; conditions: Klebsiella pneumoniae, ATCCBAA1705; KPC-2 carbapenemase producing strain; cation-adjusted Mueller Hinton broth containing human apo-transferrin; 5×10^5 cfu/mL; read-out: Minimum Inhibitory Concentration (MIC) K. pneumoniae ATCCBAA-1705
Method: as §1

P. aeruginosa SR24837 = conditions: Pseudomonas aeruginosa, SR24837; PER-1 ESBL producing strain; cation-adjusted Mueller Hinton broth containing human apo-transferrin; 5×10^5 cfu/mL; read-out: Minimum Inhibitory Concentration (MIC) P. aeruginosa SR24837
Method: as §1

P. aeruginosa SR27060 = conditions: Pseudomonas aeruginosa, SR27060; IMP-1 MBL producing strain (carbapenem resistance strain); cation-adjusted Mueller Hinton broth containing human apo-transferrin; 5×10^5 cfu/mL; read-out: Minimum Inhibitory Concentration (MIC) P. aeruginosa SR27060
Method: as §1

Compound	MIC (P. aeruginosa SR24)	MIC (A. baumannii SR27323)	MIC (E. coli ATCCBAA-199)	MIC (E. coli ATCCBAA-200)	MIC [1]	MIC (P. aeruginosa SR24837)	MIC (P. aeruginosa SR27060)
CC(C)(O/N=C(\C(=O)N[C@@H]1C(=O)N2C(C(=O)[O-])=C(C[N+]34CCC(CNC(=O)c5ccc(O)c(O)c5Cl)(CC3)CC4)CS[C@H]12)c1csc(N)n1)C(=O)[O-].[Na+] [Comparative Compound 1, reference compound]	0.5 µg/mL	1 µg/mL	2 µg/mL	4 µg/mL	0.125 µg/mL	> 32 µg/mL	4 µg/mL
CC(C)(O/N=C(\C(=O)N[C@@H]1C(=O)N2C(c3nnn[n-]3)=C(C[N+]3(C)[C@@H]4CC[C@H]3C[C@@H](NC(=O)c3ccc(O)c(O)c3Cl)C4)CS[C@H]12)c1csc(N)n1)C(=O)[O-].[Na+] (stereo partly drawn) [Compound I-2]	0.25 µg/mL	1 µg/mL	0.5 µg/mL	1 µg/mL	≤ 0.031 µg/mL	0.25 µg/mL	1 µg/mL
Nc1nc(/C(=N/O[C@@H](CC(=O)[O-])C(=O)[O-])C(=O)N[C@@H]2C(=O)N3C(c4nnn[n-]4)=C(C[N+]4(CCNC(=O)c5ccc(O)c(O)c5Cl)CCCC4)CS[C@H]23)cs1.[Na+].[Na+] [Compound I-3]	0.5 µg/mL	0.25 µg/mL	≤ 0.031 µg/mL	0.063 µg/mL	≤ 0.031 µg/mL	2 µg/mL	1 µg/mL
Nc1nc(/C(=N/O[C@@H](CC(=O)[O-])C(=O)[O-])C(=O)N[C@@H]2C(=O)N3C(c4nnn[n-]4)=C(C[N+]45CCC[C@H]4CN(C(=O)c4cc(O)c(O)c(Cl)c4)CC5)CS[C@H]23)cs1.[Na+].[Na+] (stereo partly drawn) [Compound I-4]	0.5 µg/mL	0.5 µg/mL	0.125 µg/mL	0.5 µg/mL	≤ 0.031 µg/mL	4 µg/mL	0.5 µg/mL
CC(C)(O/N=C(\C(=O)N[C@@H]1C(=O)N2C(c3nnn[n-]3)=C(C[N+]3(C)[C@@H]4CC[C@H]3C[C@@H](NC(=O)c3cc(O)c(O)c(F)c3)C4)CS[C@H]12)c1csc(N)n1)C(=O)[O-].[Na+] (stereo partly drawn) [Compound I-6]	0.25 µg/mL	2 µg/mL	0.25 µg/mL	0.5 µg/mL	≤ 0.031 µg/mL	1 µg/mL	0.5 µg/mL
CC(C)(O/N=C(\C(=O)N[C@@H]1C(=O)N2C(c3nnn[n-]3)=C(C[N+]3(CCNC(=O)c4ccc(O)c(O)c4Cl)CCCC3)C[S+]([O-])[C@H]12)c1csc(N)n1)C(=O)[O-].[Na+] (stereo partly drawn) [Compound I-7]	2 µg/mL	16 µg/mL	0.25 µg/mL	0.5 µg/mL	0.063 µg/mL	1 µg/mL	4 µg/mL
CC(C)(O/N=C(\C(=O)N[C@@H]1C(=O)N2C(c3nnn[n-]3)=C(C[N+]34CCC(CNC(=O)c5cc(=O)c(O)c[nH]5)(CC3)CC4)CS[C@H]12)c1csc(N)n1)C(=O)[O-].[Na+] [Compound I-9]	0.25 µg/mL	1 µg/mL	0.25 µg/mL	0.5 µg/mL	0.063 µg/mL	2 µg/mL	4 µg/mL
CC(C)(O/N=C(\C(=O)N[C@@H]1C(=O)N2C(c3nnn[n-]3)=C(C[N+]34CCC(CNC(=O)c5ccc(O)c(O)c5Cl)(CC3)CC4)CS[C@H]12)c1csc(N)n1)C(=O)[O-].[Na+] [Compound I-10]	0.25 µg/mL	0.5 µg/mL	0.5 µg/mL	1 µg/mL	≤ 0.031 µg/mL	2 µg/mL	2 µg/mL
C[N+]1(CC2=C(c3nnn[n-]3)N3C(=O)[C@@H](NC(=O)/C(=N\O[C@@H](CC(=O)[O-])C(=O)[O-])c4csc(N)n4)[C@H]3SC2)[C@@H]2CC[C@H]1C[C@@H](NC(=O)c1ccc(O)c(O)c1Cl)C2.[Na+].[Na+] (stereo partly drawn) [Compound I-14]	0.5 µg/mL	0.125 µg/mL	0.25 µg/mL	1 µg/mL	≤ 0.031 µg/mL	8 µg/mL	1 µg/mL
CC(C)(O/N=C(\C(=O)N[C@@H]1C(=O)N2C(c3nnn[n-]3)=C(C[N+]34CCC(CNC(=O)c5cc(=O)c(O)cn5O)(CC3)CC4)CS[C@H]12)c1csc(N)n1)C(=O)[O-].[Na+] [Compound I-18]	0.5 µg/mL	0.125 µg/mL	0.125 µg/mL	0.25 µg/mL	≤ 0.031 µg/mL	1 µg/mL	2 µg/mL
CC(C)(O/N=C(\C(=O)N[C@@H]1C(=O)N2C(c3nn[n-]n3)=C(C[N+]3(Cc4nnc(-c5ccc(O)c(O)c5Cl)o4)CCCC3)CS[C@H]12)c1csc(N)n1)C(=O)[O-].[Na+] [Compound I-45]	0.125 µg/mL	0.25 µg/mL	0.125 µg/mL	0.25 µg/mL	≤ 0.031 µg/mL	0.5 µg/mL	0.5 µg/mL
CC(C)(O/N=C(\C(=O)N[C@@H]1C(=O)N2C(c3nn[n-]n3)=C(C[N+]3(Cc4nc(-c5ccc(O)c(O)c5Cl)no4)CCCC3)CS[C@H]12)c1csc(N)n1)C(=O)[O-].[Na+] [Compound I-46]	0.25 µg/mL	0.5 µg/mL	0.125 µg/mL	0.5 µg/mL	≤ 0.031 µg/mL	1 µg/mL	0.5 µg/mL

Further lines, results first:

MIC (P. aeruginosa SR24)	MIC (A. baumannii SR27323)	MIC (E. coli ATCCBAA-199)	MIC (E. coli ATCCBAA-200)	MIC [1]	MIC (P. aeruginosa SR24837)	MIC (P. aeruginosa SR27060)	Compound
0.5 µg/mL	0.5 µg/mL	0.063 µg/mL	0.125 µg/mL	≤ 0.031 µg/mL	0.5 µg/mL	0.5 µg/mL	CC(C)(O/N=C(\C(=O)N[C@@H]1C(=O)N2C(c3nnn[n-]3)=C(C[N+]3(CCNC(=O)c4ccc(O)c(O)c4Cl)CCCC3)CS[C@H]12)c1csc(N)n1)C(=O)[O-].[Na+] [Compound I-1]
0.25 µg/mL	0.125 µg/mL	0.5 µg/mL	1 µg/mL	0.063 µg/mL	2 µg/mL	0.5 µg/mL	CC(C)(O/N=C(\C(=O)N[C@@H]1C(=O)N2C(c3nnn[n-]3)=C(C[N+]34CCC[C@H]3CN(C(=O)c3cc(O)c(O)c(F)c3)CC4)CS[C@H]12)c1csc(N)n1)C(=O)[O-].[Na+] (stereo partly drawn) [Compound I-5]
0.25 µg/mL	0.25 µg/mL	0.125 µg/mL	0.5 µg/mL	≤ 0.031 µg/mL	0.063 µg/mL	1 µg/mL	CC(C)(O/N=C(\C(=O)N[C@@H]1C(=O)N2C(c3nnn[n-]3)=C(C[N+](C)(C)CCNC(=O)c3ccc(O)c(O)c3Cl)CS[C@H]12)c1csc(N)n1)C(=O)[O-].[Na+] [Compound I-11]
0.125 µg/mL	2 µg/mL	0.5 µg/mL	1 µg/mL	≤ 0.031 µg/mL	2 µg/mL	0.5 µg/mL	CC(C)(O/N=C(\C(=O)N[C@@H]1C(=O)N2C(c3nnn[n-]3)=C(C[N+]34CCC[C@H]3CN(C(=O)c3cc(O)c(O)c(Cl)c3)CC4)CS[C@H]12)c1csc(N)n1)C(=O)[O-].[Na+] (stereo partly drawn) [Compound I-13]
0.125 µg/mL	≤ 0.031 µg/mL	0.063 µg/mL	0.25 µg/mL	≤ 0.031 µg/mL	≤ 0.031 µg/mL	0.5 µg/mL	CC(C)(O/N=C(\C(=O)N[C@@H]1C(=O)N2C(c3nnn[n-]3)=C(C[n+]3ccc(NC(=O)c4ccc(O)c(O)c4Cl)cc3)CS[C@H]12)c1csc(N)n1)C(=O)[O-].[Na+] [Compound I-15]
0.125 µg/mL	1 µg/mL	0.25 µg/mL	0.25 µg/mL	≤ 0.031 µg/mL	1 µg/mL	0.25 µg/mL	CC(C)(O/N=C(\C(=O)N[C@@H]1C(=O)N2C(c3nnn[n-]3)=C(Cn3cc(NC(=O)c4ccc(O)c(O)c4Cl)[n+]4c3CCCC4)CS[C@H]12)c1csc(N)n1)C(=O)[O-].[Na+] [Compound I-16]
≤ 0.031 µg/mL	0.125 µg/mL	0.063 µg/mL	0.125 µg/mL	≤ 0.031 µg/mL	0.25 µg/mL	0.25 µg/mL	Cc1c(O)c(O)cc2cc[n+](CC3=C(c4nnn[n-]4)N4C(=O)[C@@H](NC(=O)/C(=N\OC(C)(C)C(=O)[O-])c5csc(N)n5)[C@H]4SC3)cc12.[Na+] [Compound I-22]
0.125 µg/mL	0.25 µg/mL	0.5 µg/mL	1 µg/mL	0.063 µg/mL	0.5 µg/mL	1 µg/mL	CC(C)(O/N=C(\C(=O)N[C@@H]1C(=O)N2C(c3nn[n-]n3)=C(C[N+]3(C)CCC(NC(=O)c4ccc(O)c(O)c4Cl)CC3)CS[C@H]12)c1csc(N)n1)C(=O)[O-].[Na+] (stereo partly drawn) [Compound I-47]
≤ 0.031 µg/mL	0.5 µg/mL	0.25 µg/mL	0.25 µg/mL	≤ 0.031 µg/mL	0.125 µg/mL	0.25 µg/mL	CC(C)(O/N=C(\C(=O)N[C@@H]1C(=O)N2C(c3nn[n-]n3)=C(C[n+]3ccc(C(=O)c4ccc(O)c(O)c4Cl)cc3)CS[C@H]12)c1csc(N)n1)C(=O)[O-].[Na+] [Compound I-48]
